Measured values from US6841547B2, “Method for decreasing low density lipoprotein” (Albert Einstein College of Medicine of Yeshevia University, priority 2003, dated 2005).

Tests used:
[1] = 6-month regimen of sub-antibacterial doxycycline: cholesterol fractions in plasma of acute coronary syndrome patients with elevated baseline cholesterol; format: in vivo, human
Experimental: After six months, the cholesterol fractions were then measured (Table 1). Table 1: The Effect of a 6-Month Regimen of Sub-Antibacterial Doxycycline on Cholesterol Values in Plasma of Acute Coromary Syndrome Patients with Elevated Baseline Cholesterol

[2] = humans; cited from earlier work
[3] = in vivo; cited from earlier work

Row | Compound | Change Due to Treatment, HDL/Cholesterol (Increase) ([1]; 6 months vs baseline, doxycycline 20 mg twice a day) [%] | Change Due to Treatment, LDL-Cholesterol (Reduction) ([1]; 6 months vs baseline, doxycycline 20 mg twice a day, p=0.033) [%] | Total Cholesterol, 6 Month Level ([1]; plasma, doxycycline 20 mg twice a day for six months, 3 patients on statins, baseline 231 ± 20) [mg %] | HDL-Cholesterol, 6 Month Level ([1]; plasma, doxycycline 20 mg twice a day for six months, baseline 48 ± 17) [mg %] | LDL-Cholesterol, 6 Month Level ([1]; plasma, doxycycline 20 mg twice a day for six months, baseline 155 ± 9) [mg %] | HDL/Cholesterol, 6 Month Level ([1]; ratio of HDL-cholesterol to total cholesterol, doxycycline 20 mg twice a day for six months, baseline 0.21) | Effect on serum cholesterol [2] | Effect on serum cholesterol levels [3]
1 | C[C@H]1c2cccc(O)c2C(=O)C2=C(O)[C@]3(O)C(=O)C(C(N)=O)=C(O)[C@@H](N(C)C)[C@@H]3[C@@H](O)[C@@H]21 [doxycycline] | 19 | 31 | 190 ± 20 | 48 ± 18 | 107 ± 12 | 0.25 | – | –
2 | CN(C)[C@@H]1C(O)=C(C(N)=O)C(=O)[C@@]2(O)C(O)=C3C(=O)c4c(O)cccc4[C@@](C)(O)[C@H]3C[C@@H]12 [tetracycline] | – | – | – | – | – | – | no effect | reduce serum cholesterol levels
